From patent US7897340B2, “Use of tumor susceptibilty gene 101 (TSG 101) as a prognostic and diagnostic marker” (The Board of Regents of the University of Texas System, priority 2006, dated 2011)

Columns and labels:
p14ARF = conditions: T29H cells
Method: Protein concentrations of cell lysates were assayed with the Bio-Rad protein assay reagent. Equal amounts of protein were loaded onto 12% SDS polyacrylamide mini-gels (Bio-Rad) or 10% Tricine-SDS gels and transferred to PVDF membranes. PVDF blots and the remaining polyacrylamide gels were stained with Ponceau S and Coomassie Blue, respectively, to ensure equal loading and even transfer of the samples. After being blocked overnight in 5% milk in TBS-Tween, blots were incubated with corresponding primary antibodies for 1.5 hrs, followed by HRP-conjugated secondary antibody (1:4000, Bio-Rad) for 45 min. Antigen-antibody complexes were detected by enhanced chemiluminescence (Pierce).

TSG101 = TSG101 protein levels by immunoblotting in T29H cells; assay type: cell-based, human; conditions: inhibitor pretreatment 24 hrs (FTI-277 10 μM, U0126 20 μM, LY294002 10 μM)
From the text: Antigen-antibody complexes were detected by enhanced chemiluminescence (Pierce).

TSG101 mRNA = TSG101 mRNA levels by semi-quantitative PCR in T29 and T29H cells; assay type: cell-based, human; conditions: FTI-277 10 μM 24 hours
Method: Total RNA was isolated from cells using Trizol reagent (Invitrogen), and concentration was determined by absorbance at 260 nm. Real-Time PCR analysis was carried out using fluorescent TSG101 primers on an Applied Biosystems Prism 7000 Sequence Detection System. RT-PCR was carried out for TSG101 and HIF-1α using 1 μg of isolated total RNA under the following parameters: 94° C. 1 min, 57° C. 1 min and 72° C. 1.5 min, 35 cycles. Primers used for RT-PCR were TSG10 forward [NT] ID NO: 1), reverse [NT] ID NO: 2), CITED2 forward [NT] ID NO: 3), reverse [NT] ID NO: 4), HIF-1a ? forward [NT] ID NO: 5), reverse [NT] ID NO: 6). […] This up-regulation was further confirmed by immunoblotting analysis of equal amount of independent total protein lysates from pooled T29 and […] cells using an antibody specific to TSG101 (FIG. 1C). To check if the apparent increase in TSG101 protein was due to the transcriptional regulation of the TSG101 gene, the levels of TSG101 mRNA in T29 and […] cells were examined by semiquantitive (FIG. 1D) and real-time PCRs (FIG. 1E). […] Furthermore, the levels of TSG101 mRNA were not affected by FTI-277, a farnesyl transferase inhibitor that blocks the activation of RAS (FIG. 1D).

RAS-GTP = conditions: T29H cells, data not shown

| Compound | cellular level of p14ARF (p14ARF) | TSG101 protein levels (TSG101) | levels of TSG101 mRNA (TSG101 mRNA) | RAS-GTP levels (RAS-GTP) |
| --- | --- | --- | --- | --- |
| N#CC(=C(/N)Sc1ccccc1N)/C(C#N)=C(\N)Sc1ccccc1N [U0126] | suppressed | significantly decreased |  |  |
| COC(=O)[C@H](CCSC)NC(=O)c1ccc(NC[C@@H](N)CS)cc1-c1ccccc1 [FTI-277] |  | significant decrease | not affected | significantly inhibited |
